{"source": "patent US20220257698A1", "about": "“ANGIOTENSIN TYPE 2 (AT2) RECEPTOR AGONISTS FOR USE IN THE TREATMENT OF CANCER” (LANTHIOPEP B.V., priority 2019, published 2022)", "key": {"U251MG glioblastoma CDX": {"tested_on": "U251MG glioblastoma CDX", "assay": "Subcutaneous U251MG glioblastoma CDX: time of tumor progression", "assay_type": "in vivo, cd1 nu/nu mice (human GBM cell line)", "details": "KcAng(1-7) 1 μg/kg/d, Losartan 20 mg/kg/d, or both", "experimental": "Effects of KcAng(1-7) were evaluated in vivo in a subcutaneous GBM xenograft model in nude mice. Insurgence of neurologic phenomena and differences in the survival rates were evaluated. Human GBM cell lines U87MG and U251MG were used. Cell lines were grown in DMEM nutrient mixture supplemented with 10% fetal bovine serum, 1% penicillin/streptomycin, and 25 mM HEPES buffer. All cell lines were cultured at 37° C. in a humidified atmosphere consisting of 5% CO2 and 95% air. Medium was changed every 2 days and the cell morphology was evaluated under microscope daily. Six-week-old male athymic nude mice (age 5-7 weeks) were housed with free access to food and water in a temperature-controlled room. Each group is represented by 10 xenograft cd1 nu/nu mice. […] Xenografts were measured every four days with a digital caliper in two perpendicular dimensions. Tumor volume was calculated according to the following formula: In vivo tumor response to treatment was evaluated using the following parameters: […] […] TP, TTP and DFS were analyzed by Kaplan-Meier curves and Gehan's generalized Wilcoxon test. […]"}, "[1]": {"tested_on": "OvCa13329 ovarian cancer PDX model", "assay": "KcAng(1-7) on growth of ovarian carcinoma PDX OvCa13329 in mice", "assay_type": "in vivo, NMRI nu/nu mice (human PDX)", "details": "for optT/C: day 11 of the treatment", "experimental": "In vivo studies were conducted at EPO GmbH Berlin. Large studies (FIG. 1A, 2, 3, 4, 5) comprised 3 groups of 10 mice/group and 5 animals as reserve, as outlined in Table 1. Smaller studies (FIG. 1B, 1C, 1D) comprised 2 groups of mice of 3 mice per group. The animals were allocated to the various treatment groups (e.g. 0.2 μg/kg and 30 μg/kg) with a maximum of 10 animals per group. […] The groups received subcutaneous (s.c.) drug injection (for max. 28 days) as outlined in the Table 1.\nNMRI nu/nu mice were used in this study. The animals were female at age of 6 to 8 weeks. The respective PDX tumors were inoculated subcutaneously (s.c.), and the tumors were grown to achieve palpable tumor sizes before start of the respective treatments. The PDX included breast (MaCa4151), colon (Co9689A), head & neck (HN10309), lung (Lu7433) and ovarian (OvCa13329) cancer (Table 2).\nTreatment with KcAng(1-7) was started with palpable tumors after the randomization of animals regarding tumor volume. KcAng(1-7) was applied s.c. by daily injections at […] or 30 μg/kg dose for a maximum of 28 days (or earlier as defined by the humane end point for the study).\nKcAng(1-7) was prepared as follows: The compounds was suspended in sterile PBS resulting in a clear solution. The remains of this formulation were stored at 4° C.\nTumor growth stimulatory or inhibitory activity of the KcAng(1-7) was evaluated by determination of tumor volumes (TV). During the study, tumor volumes and body weight were measured twice a week, and the ratio of the mean tumor volumes between the compound-treated group and the vehicle-treated group (T/C) was calculated.\nTumor volume=(tumor width)×(tumor width)×(tumor length)+2\nT/C=T÷C • T: Mean estimated tumor volume of the compound-treated group • C: Mean estimated tumor volume of the vehicle-treated group"}, "[2]": {"details": "Gr. B 0.2 μg/kg/d s.c., Day 7 (Meas. 1)"}, "[3]": {"details": "Gr. B 0.2 μg/kg/d s.c., Day 11 (Meas. 2)"}, "[4]": {"details": "Gr. B 0.2 μg/kg/d s.c., Day 14 (Meas. 3)"}, "[5]": {"details": "Gr. B 0.2 μg/kg/d s.c., Day 18 (Meas. 4)"}, "[6]": {"details": "Gr. B 0.2 μg/kg/d s.c., Day 21 (Meas. 5)"}, "[7]": {"details": "Gr. C 30 μg/kg/d s.c., Day 7 (Meas. 1)"}, "[8]": {"details": "Gr. C 30 μg/kg/d s.c., Day 11 (Meas. 2)"}, "[9]": {"details": "Gr. C 30 μg/kg/d s.c., Day 14 (Meas. 3)"}, "[10]": {"details": "Gr. C 30 μg/kg/d s.c., Day 18 (Meas. 4)"}, "[11]": {"details": "Gr. C 30 μg/kg/d s.c., Day 21 (Meas. 5)"}}, "data": [{"substance": "Lys-Asp-Arg-Val-Abu/Ala-Ile-His-Abu/Ala (KDRVAIHA; not fully specified; cyclic thioether (Abu/Ala bridge); VARIANT (5)..(5) /replace=“Abu”; VARIANT (8)..(8) /replace=“Abu”; SITE (1)..(8) /note=“Variant residues given in the sequence have no preference with respect to those in the annotations for variant positions”) [KcAng(1-7)]", "values": [{"measurement": "Time of tumor progression - TTP, mean (days ± SEM)", "setting": "U251MG glioblastoma CDX", "value": "14.4 ± 0.8", "unit": "days"}, {"measurement": "optT/C", "setting": "[1]; 0.2 μg/kg", "value": 55.8, "unit": "%"}, {"measurement": "optT/C", "setting": "[1]; 30 μg/kg", "value": 51, "unit": "%"}, {"measurement": "effect on tumor volume", "setting": "[1]; 0.2 and 30 μg/kg, 15 days", "value": "significant reduction in tumor volume"}, {"measurement": "RTV Mean", "setting": "[1]; [2]", "value": 1}, {"measurement": "RTV Median", "setting": "[1]; [2]", "value": 1}, {"measurement": "T/C", "setting": "[1]; [2]", "value": 102.4, "unit": "%"}, {"measurement": "Tumor Vol. Mean", "setting": "[1]; [2]", "value": 0.122, "unit": "cm^3"}, {"measurement": "Tumor Vol. Median", "setting": "[1]; [2]", "value": 0.123, "unit": "cm^3"}, {"measurement": "RTV Mean", "setting": "[1]; [3]", "value": 1.6}, {"measurement": "RTV Median", "setting": "[1]; [3]", "value": 1.5}, {"measurement": "T/C", "setting": "[1]; [3]", "value": 55.8, "unit": "%"}, {"measurement": "Tumor Vol. Mean", "setting": "[1]; [3]", "value": 0.192, "unit": "cm^3"}, {"measurement": "Tumor Vol. Median", "setting": "[1]; [3]", "value": 0.181, "unit": "cm^3"}, {"measurement": "RTV Mean", "setting": "[1]; [4]", "value": 3.1}, {"measurement": "RTV Median", "setting": "[1]; [4]", "value": 3}, {"measurement": "T/C", "setting": "[1]; [4]", "value": 68.5, "unit": "%"}, {"measurement": "Tumor Vol. Mean", "setting": "[1]; [4]", "value": 0.384, "unit": "cm^3"}, {"measurement": "Tumor Vol. Median", "setting": "[1]; [4]", "value": 0.337, "unit": "cm^3"}, {"measurement": "RTV Mean", "setting": "[1]; [5]", "value": 8.5}, {"measurement": "RTV Median", "setting": "[1]; [5]", "value": 8}, {"measurement": "T/C", "setting": "[1]; [5]", "value": 73.9, "unit": "%"}, {"measurement": "Tumor Vol. Mean", "setting": "[1]; [5]", "value": 0.985, "unit": "cm^3"}, {"measurement": "Tumor Vol. Median", "setting": "[1]; [5]", "value": 1.015, "unit": "cm^3"}, {"measurement": "RTV Mean", "setting": "[1]; [6]", "value": 13.4}, {"measurement": "RTV Median", "setting": "[1]; [6]", "value": 11.9}, {"measurement": "T/C", "setting": "[1]; [6]", "value": 79.3, "unit": "%"}, {"measurement": "Tumor Vol. Mean", "setting": "[1]; [6]", "value": 1.547, "unit": "cm^3"}, {"measurement": "Tumor Vol. Median", "setting": "[1]; [6]", "value": 1.398, "unit": "cm^3"}, {"measurement": "RTV Mean", "setting": "[1]; [7]", "value": 1}, {"measurement": "RTV Median", "setting": "[1]; [7]", "value": 1}, {"measurement": "T/C", "setting": "[1]; [7]", "value": 97, "unit": "%"}, {"measurement": "Tumor Vol. Mean", "setting": "[1]; [7]", "value": 0.116, "unit": "cm^3"}, {"measurement": "Tumor Vol. Median", "setting": "[1]; [7]", "value": 0.115, "unit": "cm^3"}, {"measurement": "RTV Mean", "setting": "[1]; [8]", "value": 1.6}, {"measurement": "RTV Median", "setting": "[1]; [8]", "value": 1.6}, {"measurement": "T/C", "setting": "[1]; [8]", "value": 51.1, "unit": "%"}, {"measurement": "Tumor Vol. Mean", "setting": "[1]; [8]", "value": 0.176, "unit": "cm^3"}, {"measurement": "Tumor Vol. Median", "setting": "[1]; [8]", "value": 0.182, "unit": "cm^3"}, {"measurement": "RTV Mean", "setting": "[1]; [9]", "value": 2.6}, {"measurement": "RTV Median", "setting": "[1]; [9]", "value": 2.7}, {"measurement": "T/C", "setting": "[1]; [9]", "value": 54.9, "unit": "%"}, {"measurement": "Tumor Vol. Mean", "setting": "[1]; [9]", "value": 0.308, "unit": "cm^3"}, {"measurement": "Tumor Vol. Median", "setting": "[1]; [9]", "value": 0.33, "unit": "cm^3"}, {"measurement": "RTV Mean", "setting": "[1]; [10]", "value": 8.4}, {"measurement": "RTV Median", "setting": "[1]; [10]", "value": 8.4}, {"measurement": "T/C", "setting": "[1]; [10]", "value": 72.2, "unit": "%"}, {"measurement": "Tumor Vol. Mean", "setting": "[1]; [10]", "value": 0.962, "unit": "cm^3"}, {"measurement": "Tumor Vol. Median", "setting": "[1]; [10]", "value": 0.995, "unit": "cm^3"}, {"measurement": "RTV Mean", "setting": "[1]; [11]", "value": 12.6}, {"measurement": "RTV Median", "setting": "[1]; [11]", "value": 13}, {"measurement": "T/C", "setting": "[1]; [11]", "value": 73.9, "unit": "%"}, {"measurement": "Tumor Vol. Mean", "setting": "[1]; [11]", "value": 1.442, "unit": "cm^3"}, {"measurement": "Tumor Vol. Median", "setting": "[1]; [11]", "value": 1.503, "unit": "cm^3"}]}]}
